The SangsterLogP compilation

Assay: method code SF-AS, from DOI: 10.1002/zfch.19810210618

logP | Compound
-0.13 | NNC(=O)Nc1cccc([N+](=O)[O-])c1
0.9 | NNC(=O)Nc1cccc2ccccc12
0.33 | NNC(=O)Nc1ccccc1O
1 | NNC(=O)Nc1ccc(Br)cc1
1.07 | NNC(=O)Nc1cc(Cl)ccc1Cl
-0.18 | NNC(=O)Nc1ccc([N+](=O)[O-])cc1
-0.55 | NNC(=O)Nc1ccc(O)cc1
0.66 | NNC(=O)Nc1ccccc1Br
0.36 | Cc1ccccc1NC(=O)NN
-0.49 | NNC(=O)Nc1ccccc1C(=O)O
0.69 | Cc1ccc(NC(=O)NN)cc1
0.83 | NNC(=O)Nc1cccc(Cl)c1
-0.21 | NNC(=O)Nc1ccc(C(=O)O)cc1
1.24 | NNC(=O)Nc1ccc(I)cc1
-0.16 | NNC(=O)Nc1cccc(C(=O)O)c1
-0.5 | NNC(=O)Nc1cccc(O)c1
-0.15 | COc1ccccc1NC(=O)NN
0.17 | COc1cccc(NC(=O)NN)c1
0.68 | Cc1cccc(NC(=O)NN)c1
0.45 | NNC(=O)Nc1ccccc1Cl
-0.47 | NNC(=O)Nc1ccccc1[N+](=O)[O-]
0.16 | NNC(=O)Nc1ccccc1
0.87 | NNC(=O)Nc1ccc(Cl)cc1
0.53 | CCOc1ccc(NC(=O)NN)cc1
0.96 | NNC(=O)Nc1cccc(Br)c1
0.17 | COc1ccc(NC(=O)NN)cc1
